This note sets out measurements from EP4806910A1, “TRI-AGONIST COMPOUND” (priority 2023, dated 2025).

One may read the EC50 as the midpoint of the concentration-response curve. What is called half-life is the time in which the quantity being followed falls by half. Lower therefore signals fast loss.

The target in data set [1] is T1, GLP-1R (Homo sapiens, UniProt P43220).
T1 construct: expressed in transfected cells; host or cells: CHO-K1
In words: GLP-1 activity test (cAMP, chemiluminescence). The class given is cell-based. The protocol:
(§1) Upon stimulation by a specific agonist, GLP-1R activates the intracellular adenylate cyclase signaling pathway, resulting in an increase in cAMP levels and ultimately leading to insulin production and secretion. A cell line stably transfected with GLP-1R was stimulated with test compounds, thereby rapidly increasing intracellular cAMP levels. The relative luminescence units (RLU) of cells stimulated at various concentrations were measured by a chemiluminescence method, and the EC50 value of the agonist was calculated accordingly. This activity test method is currently a commonly used method for evaluating GLP-1 receptor agonist activity both domestically and internationally. A CHO-K1 cell line stably expressing GLP-1R was used. The stable cells were stimulated with agonists at different concentrations, and the relative luminescence units after stimulation at each concentration were measured to calculate the EC50 value of the agonist.

The target in data set [2] is T2, GIPR (Homo sapiens, UniProt P48546).
T2 construct: expressed in transfected cells; host or cells: CHO-K1
T2 sequence (P48546 22-466): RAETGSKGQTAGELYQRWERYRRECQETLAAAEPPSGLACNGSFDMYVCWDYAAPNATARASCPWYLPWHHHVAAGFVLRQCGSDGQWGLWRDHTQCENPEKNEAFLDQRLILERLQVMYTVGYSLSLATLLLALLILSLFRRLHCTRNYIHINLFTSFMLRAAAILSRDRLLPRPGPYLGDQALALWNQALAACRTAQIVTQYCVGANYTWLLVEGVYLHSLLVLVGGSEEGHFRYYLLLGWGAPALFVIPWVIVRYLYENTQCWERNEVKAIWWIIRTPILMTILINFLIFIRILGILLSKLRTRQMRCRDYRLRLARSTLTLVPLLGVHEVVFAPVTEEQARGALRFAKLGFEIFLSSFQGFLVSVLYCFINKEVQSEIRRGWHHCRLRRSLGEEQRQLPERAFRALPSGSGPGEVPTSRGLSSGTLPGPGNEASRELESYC
The experiment in a line: GIP activity test (cAMP, chemiluminescence). The class given is cell-based. How it is done: as §1, with “agonist, GIPR” for “agonist, GLP-1R”, “with GIPR” for “with GLP-1R”, “activity assay” for “activity test”, “evaluating GIP” for “evaluating GLP-1”, “expressing GIPR” for “expressing GLP-1R”

Data set [3] concerns the target T3, GCG-R (Homo sapiens, UniProt P47871).
T3 construct: expressed in transfected cells; host or cells: CHO-K1
In words: GCG activity test (cAMP, chemiluminescence). The class given is cell-based. How it is done: Upon stimulation by a specific agonist, GCG-R activates the intracellular adenylate cyclase signaling pathway, resulting in an increase in cAMP levels and ultimately leading to insulin production and secretion. A cell line stably transfected with GCG-R was stimulated with test compounds, thereby rapidly increasing intracellular cAMP levels. The relative luminescence units (RLU) of cells stimulated at various concentrations were measured by a chemiluminescence method, and the EC50 value of the agonist was calculated accordingly. This activity assay method is currently a commonly used method for evaluating GCG receptor agonist activity both domestically and internationally.
A CHO-K1 cell line stably expressing GCG-R was used. The stable cells were stimulated with agonists at different concentrations, and the relative luminescence units after stimulation at each concentration were measured to calculate the EC50 value of the agonist.

Data set [4] can be described thus: Preliminary pharmacokinetic evaluation, plasma concentration by LC-MS. The class given is in vivo, cynomolgus monkeys. As to conditions: for half-life: cynomolgus monkey, male cynomolgus monkeys, subcutaneously (SC), 0.2 mg/kg, plasma; for half-lives: cynomolgus monkeys, administered subcutaneously. How it is done: The test animals were male cynomolgus monkeys. Two animals were used for each compound. The compounds were administered subcutaneously at a dose of 0.2 mg/kg. Blood samples were collected via intravenous sampling prior to administration (0 h) and at 1 h, 2 h, 3 h, 4 h, 8 h, 12 h, 18 h, 24 h, 48 h, 96 h, 144 h, and 168 h after administration. Plasma samples were obtained by centrifugation. The plasma concentrations of the compounds were respectively determined by liquid chromatography - mass spectrometry (LC-MS).

Molecules are shown by their SMILES. Read-outs that look alike come from different tables or passages of the source.

T1 sequence (P43220 24-463, species assumed): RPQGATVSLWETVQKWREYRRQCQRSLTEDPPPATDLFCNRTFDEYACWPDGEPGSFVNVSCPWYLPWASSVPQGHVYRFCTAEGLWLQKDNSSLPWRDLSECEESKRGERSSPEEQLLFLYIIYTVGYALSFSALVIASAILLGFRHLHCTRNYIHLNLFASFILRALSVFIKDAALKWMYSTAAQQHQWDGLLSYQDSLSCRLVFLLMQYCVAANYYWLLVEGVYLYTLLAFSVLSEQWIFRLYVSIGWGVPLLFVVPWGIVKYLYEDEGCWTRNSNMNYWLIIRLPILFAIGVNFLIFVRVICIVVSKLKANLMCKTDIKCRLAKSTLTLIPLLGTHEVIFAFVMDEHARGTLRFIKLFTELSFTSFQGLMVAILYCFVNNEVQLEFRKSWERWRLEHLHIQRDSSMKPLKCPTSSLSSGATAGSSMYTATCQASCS
T3 sequence (P47871 26-477, species assumed): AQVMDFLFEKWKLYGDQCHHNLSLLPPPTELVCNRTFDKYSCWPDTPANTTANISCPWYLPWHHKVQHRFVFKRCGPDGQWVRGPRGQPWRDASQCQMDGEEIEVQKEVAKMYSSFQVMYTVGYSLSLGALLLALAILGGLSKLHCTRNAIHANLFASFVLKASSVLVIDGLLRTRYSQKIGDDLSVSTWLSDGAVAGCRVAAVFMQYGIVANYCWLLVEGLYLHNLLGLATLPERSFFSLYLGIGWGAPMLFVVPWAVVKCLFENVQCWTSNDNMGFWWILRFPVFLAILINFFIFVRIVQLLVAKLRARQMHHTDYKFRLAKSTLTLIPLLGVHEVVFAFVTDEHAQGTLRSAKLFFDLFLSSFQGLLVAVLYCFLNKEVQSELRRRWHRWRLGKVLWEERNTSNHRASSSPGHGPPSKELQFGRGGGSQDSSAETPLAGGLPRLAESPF

On to `CC[C@H](C)[C@H](NC(=O)[C@H](Cc1ccccc1)NC(=O)[C@H](C)NC(=O)C(C)(C)NC(=O)[C@H](CCC(N)=O)NC(=O)[C@H](C)NC(=O)[C@H](CCCCNC(=O)COCCOCCNC(=O)CCC[C@H](NC(=O)CCCCCCCCCCCCCCCCCCC(=O)O)C(=O)O)NC(=O)[C@H](CCCCN)NC(=O)[C@H](CC(=O)O)NC(=O)[C@H](CC(C)C)NC(=O)C(C)(CC(C)C)NC(=O)[C@@H](NC(=O)[C@H](CO)NC(=O)[C@H](Cc1ccc(O)cc1)NC(=O)[C@H](CC(=O)O)NC(=O)[C@H](CO)NC(=O)[C@@H](NC(=O)C(C)(Cc1ccccc1)NC(=O)[C@@H](NC(=O)CNC(=O)[C@H](CCC(N)=O)NC(=O)C(C)(C)NC(=O)[C@@H](N)Cc1ccc(O)cc1)[C@@H](C)O)[C@@H](C)O)[C@@H](C)CC)C(=O)N[C@@H](CCC(=O)O)C(=O)N[C@@H](Cc1ccc(O)cc1)C(=O)N[C@@H](CC(C)C)C(=O)N[C@@H](CC(C)C)C(=O)N[C@@H](CCC(=O)O)C(=O)NCCCCC(=O)N1CCC[C@H]1C(=O)N[C@@H](CO)C(=O)N[C@@H](CO)C(=O)NCC(=O)N[C@@H](C)C(=O)N1CCC[C@H]1C(=O)N1CCC[C@H]1C(=O)N1CCC[C@H]1C(=O)N[C@@H](CO)C(N)=O` (stereo partly shown) [Compound 2], for which the EC50 was found to be 0.0406 nM in data set [1], 0.0181 nM in data set [2] and 0.244 nM in data set [3]. In data set [4], this compound gave a half-life of 108 h. In addition, the half-lives entry in data set [4] was “greater than 100 hours”.

Take `CC[C@H](C)[C@H](NC(=O)[C@H](Cc1ccccc1)NC(=O)[C@H](C)NC(=O)C(C)(C)NC(=O)[C@H](CCC(N)=O)NC(=O)[C@H](C)NC(=O)[C@H](CCCCNC(=O)COCCOCCNC(=O)CCC[C@H](NC(=O)CCCCCCCCCCCCCCCCCCC(=O)O)C(=O)O)NC(=O)[C@H](CCCCN)NC(=O)[C@H](CC(=O)O)NC(=O)[C@H](CC(C)C)NC(=O)C(C)(CC(C)C)NC(=O)[C@@H](NC(=O)[C@H](CO)NC(=O)[C@H](Cc1ccc(O)cc1)NC(=O)[C@H](CC(=O)O)NC(=O)[C@H](CO)NC(=O)[C@@H](NC(=O)C(C)(Cc1ccccc1F)NC(=O)[C@@H](NC(=O)CNC(=O)[C@H](CCC(N)=O)NC(=O)C(C)(C)NC(=O)[C@@H](N)Cc1ccc(O)cc1)[C@@H](C)O)[C@@H](C)O)[C@@H](C)CC)C(=O)N[C@@H](CCC(=O)O)C(=O)N[C@@H](Cc1ccc(O)cc1)C(=O)N[C@@H](CC(C)C)C(=O)N[C@@H](CC(C)C)C(=O)N[C@@H](CCC(=O)O)C(=O)NCCCCC(=O)N1CCC[C@H]1C(=O)N[C@@H](CO)C(=O)N[C@@H](CO)C(=O)NCC(=O)N[C@@H](C)C(=O)N1CCC[C@H]1C(=O)N1CCC[C@H]1C(=O)N1CCC[C@H]1C(=O)N[C@@H](CO)C(N)=O` (stereo partly shown) [Compound 6]: the results for the EC50 in data set [1], in data set [2] and in data set [3] were 0.0375 nM, 0.0188 nM and 0.141 nM, respectively. Moreover, the half-life in data set [4] is 115 h. In addition, the half-lives result in data set [4] is given as “greater than 100 hours”.

For `CC[C@H](C)[C@H](NC(=O)[C@H](Cc1ccccc1)NC(=O)[C@H](C)NC(=O)C(C)(C)NC(=O)[C@H](CCC(N)=O)NC(=O)[C@H](C)NC(=O)[C@H](CCCCNC(=O)COCCOCCNC(=O)CC[C@H](NC(=O)CCCCCCCCCCCCCCCCCCC(=O)O)C(=O)O)NC(=O)[C@H](CCCCN)NC(=O)[C@H](CC(=O)O)NC(=O)[C@H](CC(C)C)NC(=O)[C@](C)(CC(C)C)NC(=O)[C@@H](NC(=O)[C@H](CO)NC(=O)[C@H](Cc1ccc(O)cc1)NC(=O)[C@H](CC(=O)O)NC(=O)[C@H](CO)NC(=O)[C@@H](NC(=O)[C@H](Cc1ccccc1)NC(=O)[C@@H](NC(=O)CNC(=O)[C@H](CCC(N)=O)NC(=O)C(C)(C)NC(=O)[C@@H](N)Cc1ccc(O)cc1)[C@@H](C)O)[C@@H](C)O)[C@@H](C)CC)C(=O)N[C@@H](CCC(=O)O)C(=O)N[C@@H](Cc1ccc(O)cc1)C(=O)N[C@@H](CC(C)C)C(=O)N[C@@H](CC(C)C)C(=O)N[C@@H](CCC(=O)O)C(=O)NCC(=O)NCC(=O)N1CCC[C@H]1C(=O)N[C@@H](CO)C(=O)N[C@@H](CO)C(=O)NCC(=O)N[C@@H](C)C(=O)N1CCC[C@H]1C(=O)N1CCC[C@H]1C(=O)N1CCC[C@H]1C(=O)N[C@@H](CO)C(N)=O` [retatrutide, Retatrutide, reference compound], the EC50 in data set [1] (CHO-K1 cell line stably expressing GLP-1R, cAMP, relative luminescence units, read-out: GLP-1 [EC50(pmol)]) came out at 0.046 nM; in data set [2] (CHO-K1 cell line stably expressing GIPR, cAMP, relative luminescence units, read-out: GIP [EC50(pmol)]) it was 0.0342 nM; in data set [3] (CHO-K1 cell line stably expressing GCG-R, cAMP, relative luminescence units, read-out: GCG [EC50(pmol)]), 0.523 nM.
